Test results taken from patent publication US9096492B2, “Hydrated N-fullerene amino acids, method for producing the latter, and pharmaceutical compositions on the basis thereof” (priority 2011, dated 2015).
Like-named read-outs stand apart in the source and are kept apart here.

Tests used:
[1] = tested on: A/Puerto Rico/8/34 (H1N1) influenza virus; assay type: in vivo, mice; details: for Size of chronic post-influenza pneumonia sites (% of the total surface area of the lungs): the lower of the virus doses used, day 15
[2] = tested on: A/Vladivostok/2/09 (H1N1) influenza virus; assay type: in vivo, mice; details: for Size of chronic post-influenza pneumonia sites (% of the total surface area of the lungs): the lower of the virus doses used, day 15
[3] = Tamiflu 20 mg/kg, Summary dose, n=28
[4] = Tamiflu 20 mg/kg, Summary dose, n=19

## CCOC(=O)C1=C[C@@H](OC(CC)CC)[C@H](NC(C)=O)[C@@H](N)C1.O=P(O)(O)O [Tamiflu, ethyl(3R,4R,5S)-4-acetamido-5-amino-3-(1-ethylpropoxy)-1-cyclohexene-1-carboxylate phosphate, reference compound]
[1]; Tamiflu
  reduction of the death rate compared to the control: approximately 70%
[1]; [3]
  Average lifetime (LD): 13.9 days
  Increase in LD: 3.6 days
  Index of protection, %: 66.7%
  Mortality rate, %: 21.4%
  Number of survivors: 22
[1]; Tamiflu 20 mg/kg, […], n=13
  Average lifetime (LD): 14.4 days
  Increase in LD: 2.1 days
  Index of protection, %: 67.0%
  Mortality rate, %: 15.4%
  Number of survivors: 11
[1]; Tamiflu 20 mg/kg, […], n=15
  Average lifetime (LD): 13.5 days
  Increase in LD: 5.5 days
  Index of protection, %: 68.5%
  Mortality rate, %: 26.7%
  Number of survivors: 11
[1]; Tamiflu 20 mg/kg
  Size of chronic post-influenza pneumonia sites (% of the total surface area of the lungs): 15 ± 4; %
[2]; Tamiflu 20 mg/kg
  activity against the strain: inactive
  Size of chronic post-influenza pneumonia sites (% of the total surface area of the lungs): 15 ± 5%
[2]; [4]
  Average lifetime (LD): 12.5 days
  Increase in LD: 0.2 days
  Index of protection, %: 14.0%
  Mortality rate, %: 36.8%
  Number of survivors: 12
[2]; Tamiflu 20 mg/kg, […], n=9
  Average lifetime (LD): 13.4 days
  Increase in LD: 0.3 days
  Index of protection, %: 18.5%
  Mortality rate, %: 22.2%
  Number of survivors: 7
[2]; Tamiflu 20 mg/kg, […], n=10
  Average lifetime (LD): 11.7 days
  Increase in LD: 0.3 days
  Index of protection, %: 16.7%
  Mortality rate, %: 50.0%
  Number of survivors: 5

## N-fullerene tris(δ-aminocaproic acid) hydrate [Agent 1]
[1]; 30 mg/kg, Summary dose, n=29
  Average lifetime (LD): 11.8 days
  Increase in LD: 1.4 days
  Mortality rate, %: 55.2%
  Number of survivors: 13
[1]; 30 mg/kg, […], n=14
  Average lifetime (LD): 13.3 days
  Increase in LD: 1.0 days
  Mortality rate, %: 35.7%
  Number of survivors: 9
[1]; 30 mg/kg, […], n=15
  Average lifetime (LD): 10.4 days
  Increase in LD: 2.3 days
  Mortality rate, %: 73.3%
  Number of survivors: 4
[1]; 100 mg/kg, Summary dose, n=30
  Average lifetime (LD): 12.6 days
  Increase in LD: 2.2 days
  Mortality rate, %: 40.0%
  Number of survivors: 18
[1]; 300 mg/kg, Summary dose, n=29
  Average lifetime (LD): 12.5 days
  Increase in LD: 2.2 days
  Mortality rate, %: 31.0%
  Number of survivors: 20
[1]; 300 mg/kg, […], n=14
  Average lifetime (LD): 11.3 days
  Increase in LD: 3.2 days
  Mortality rate, %: 42.9%
  Number of survivors: 8
[1]; 300 mg/kg, […], n=15
  Average lifetime (LD): 13.7 days
  Increase in LD: 1.3 days
  Mortality rate, %: 20.0%
  Number of survivors: 12
[1]; 300 mg/kg
  Size of chronic post-influenza pneumonia sites (% of the total surface area of the lungs): 13 ± 3%
[2]; 30 mg/kg, Summary dose, n=25
  Average lifetime (LD): 13.7 days
  Increase in LD: 1.4 days
  Mortality rate, %: 28.0%
  Number of survivors: 18
[2]; 30 mg/kg, […], n=12
  Average lifetime (LD): 13.2 days
  Increase in LD: 1.8 days
  Mortality rate, %: 41.7%
  Number of survivors: 7
[2]; 30 mg/kg, […], n=13
  Average lifetime (LD): 14.2 days
  Increase in LD: 1.0 days
  Mortality rate, %: 15.4%
  Number of survivors: 11
[2]; 100 mg/kg, Summary dose, n=22
  Average lifetime (LD): 13.6 days
  Increase in LD: 1.3 days
  Mortality rate, %: 27.3%
  Number of survivors: 16
[2]; 100 mg/kg, […], n=10
  Average lifetime (LD): 14.0 days
  Increase in LD: 0.8 days
  Mortality rate, %: 20.0%
  Number of survivors: 8
[2]; 100 mg/kg, […], n=12
  Average lifetime (LD): 13.3 days
  Increase in LD: 1.9 days
  Mortality rate, %: 33.3%
  Number of survivors: 8
[2]; 300 mg/kg, Summary dose, n=26
  Average lifetime (LD): 14.2 days
  Increase in LD: 1.8 days
  Mortality rate, %: 15.4%
  Number of survivors: 22
[2]; 300 mg/kg
  Size of chronic post-influenza pneumonia sites (% of the total surface area of the lungs): 7 ± 2%
